The species entered for data set [1] is Homo sapiens. Description: Binding affinity to wild type Hsp90 (unknown origin) assessed as rate of modification half life.
For data set [2], the species on record is Homo sapiens. Description: Inhibition of wild type Hsp90 (unknown origin) assessed as inactivation rate constant (Kinact).
Data set [3] concerns the target T1, Replicase polyprotein 1ab (Severe acute respiratory syndrome coronavirus 2, UniProt P0DTD1). Description: Binding affinity to SARS-CoV-2 cysteine protease-Mpro assessed as inhibition constant.
Data set [4] has as its target Replicase polyprotein 1ab (Severe acute respiratory syndrome coronavirus 2) (UniProt P0DTD1). Description: Binding affinity to SARS-CoV-2 cysteine protease-Mpro assessed as inactivation rate constant (Kinact).
Data set [5] concerns the target T2, Carbonic anhydrase 2 (Homo sapiens, UniProt P00918). Description: Binding affinity to carbonic anhydrase II (unknown origin) fragment assessed as rate of protein modification by measuring inactivation rate constant (Kinact).
Data set [6] addresses T2, Carbonic anhydrase 2. As to the kind of experiment: Rate of protein modification at carbonic anhydrase II (unknown origin) fragment assessed as inhibition constant.
Data set [7] can be described thus: Reactivity rate at cyclic sulfonamide assessed as rate constant by CSA sulfenic-acid model. The data set is classed as physicochemical.
The nature of data set [8]: Reactivity of SuTEx assessed as aryl-LG modifications by measuring half life by HLPC analysis. The data set is classed as physicochemical.
The target in data set [9] is E3 ubiquitin-protein ligase Mdm2 (Homo sapiens) (UniProt Q00987). As to the kind of experiment: Binding affinity to human HDM2 assessed as rate constant of covalent modification (Kinact).
Sequence of E3 ubiquitin-protein ligase Mdm2 (Homo sapiens) (Q00987 whole entry, looked up): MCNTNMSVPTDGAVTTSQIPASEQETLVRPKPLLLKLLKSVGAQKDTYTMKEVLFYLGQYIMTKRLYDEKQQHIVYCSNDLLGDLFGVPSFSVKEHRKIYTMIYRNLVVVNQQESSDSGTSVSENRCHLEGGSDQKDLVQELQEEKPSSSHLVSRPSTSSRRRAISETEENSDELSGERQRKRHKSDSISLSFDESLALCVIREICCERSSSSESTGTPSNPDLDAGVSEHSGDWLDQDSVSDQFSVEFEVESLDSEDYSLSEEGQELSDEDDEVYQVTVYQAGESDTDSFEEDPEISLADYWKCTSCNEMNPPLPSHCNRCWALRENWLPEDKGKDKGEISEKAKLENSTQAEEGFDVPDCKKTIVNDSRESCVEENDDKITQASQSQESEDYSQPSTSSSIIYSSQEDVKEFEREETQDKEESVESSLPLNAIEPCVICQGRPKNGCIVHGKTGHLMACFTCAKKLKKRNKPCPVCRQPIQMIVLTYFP
Data set [10] has the same target. As to the kind of experiment: Binding affinity to human HDM2 assessed as second-order rate constant (Kinact/Kd) ratio.
Data set [11] addresses NAD-dependent protein deacylase sirtuin-5, mitochondrial (Homo sapiens) (UniProt Q9NXA8). Description: Inhibition of SIRT5 (unknown origin) assessed as inactivation rate constant (Kinact).
Data set [12] has the same target. As to the kind of experiment: Inhibition of SIRT5 (unknown origin) assessed as reaction rate Kinact/Ki ratio.
Data set [13] in a line: GSH reactivity in PBS buffer at pH 8 assessed as second-order reaction rate constants upto 200 uM by DTNB assay. Particulars: pH 8, 200 µM. The data set is classed as ADME.
Data set [14] in a line: GSH reactivity in PBS buffer at pH 7.4 assessed as half life. Format: ADME.
The nature of data set [15]: Cysteine-reactive in peptide assessed as half life using fluorogenic monochlorobimane/zinc complex by measuring fluorescence intensity. The data set is classed as ADME. The note with it: cysteine-containing peptide.
Data set [16] is described as follows: GSH reactivity in PBS buffer at pH 8 at 14 degC assessed as half life upto 200 uM. Format: ADME.
In data set [17] the target is T1, Replicase polyprotein 1ab. As to the kind of experiment: Inhibition of SARS-CoV-2 papain-like protease (PLpro) using fluorogenic peptide substrate by fluorescent assay.
Data set [18] in a line: Reactivity of SuTEx assessed as aryl-AG modifications by measuring half life by HLPC analysis. The data set is classed as physicochemical.
In data set [19] the target is T3, Tyrosine-protein kinase ABL1 (Homo sapiens, UniProt P00519). Description: Inhibition of wild type N-terminal His tagged ABL kinase (unknown origin) using fluorescence-labelled substrate by off-chip mobility shift assay.
T3 sequence (P00519 whole entry): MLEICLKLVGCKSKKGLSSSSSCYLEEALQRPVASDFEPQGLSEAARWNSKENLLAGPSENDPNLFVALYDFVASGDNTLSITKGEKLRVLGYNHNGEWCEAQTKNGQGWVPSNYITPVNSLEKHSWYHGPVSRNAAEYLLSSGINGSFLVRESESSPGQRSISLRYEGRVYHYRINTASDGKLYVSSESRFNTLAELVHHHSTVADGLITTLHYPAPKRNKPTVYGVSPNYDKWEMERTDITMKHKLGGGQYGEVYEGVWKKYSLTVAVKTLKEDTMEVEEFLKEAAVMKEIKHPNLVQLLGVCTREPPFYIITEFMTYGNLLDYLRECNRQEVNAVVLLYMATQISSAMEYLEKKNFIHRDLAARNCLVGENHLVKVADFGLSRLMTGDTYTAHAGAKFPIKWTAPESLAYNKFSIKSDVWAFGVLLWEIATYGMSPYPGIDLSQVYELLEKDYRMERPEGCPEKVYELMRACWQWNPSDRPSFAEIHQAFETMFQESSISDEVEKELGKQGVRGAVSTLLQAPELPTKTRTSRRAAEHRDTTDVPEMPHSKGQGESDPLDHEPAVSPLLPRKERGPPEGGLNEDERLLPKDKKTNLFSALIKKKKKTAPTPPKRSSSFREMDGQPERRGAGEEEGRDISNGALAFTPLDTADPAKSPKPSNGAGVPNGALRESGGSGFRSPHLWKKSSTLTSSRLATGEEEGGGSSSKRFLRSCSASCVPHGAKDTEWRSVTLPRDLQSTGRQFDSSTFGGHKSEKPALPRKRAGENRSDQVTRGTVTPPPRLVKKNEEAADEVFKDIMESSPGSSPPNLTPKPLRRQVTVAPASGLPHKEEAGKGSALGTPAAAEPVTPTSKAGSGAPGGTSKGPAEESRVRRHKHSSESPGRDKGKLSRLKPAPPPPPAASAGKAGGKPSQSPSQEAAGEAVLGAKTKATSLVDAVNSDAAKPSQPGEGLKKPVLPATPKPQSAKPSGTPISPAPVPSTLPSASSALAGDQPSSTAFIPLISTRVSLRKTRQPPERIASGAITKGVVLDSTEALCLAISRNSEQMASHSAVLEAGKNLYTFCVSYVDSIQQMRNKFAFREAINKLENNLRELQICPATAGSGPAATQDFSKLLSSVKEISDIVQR
Data set [20] concerns the target T3, Tyrosine-protein kinase ABL1. Description: Inhibition of recombinant ABL kinase (unknown origin) assessed as inactivation rate constant (Kinact).
Data set [21] has the same target. Description: Inhibition of recombinant ABL kinase (unknown origin) assessed as inhibition constant.
A short description of data set [22]: Chemical stability of the compound in pH 7.4 buffer assessed as half life. Format: physicochemical.

Sequence of NAD-dependent protein deacylase sirtuin-5, mitochondrial (Homo sapiens) (Q9NXA8 37-310 limits assumed): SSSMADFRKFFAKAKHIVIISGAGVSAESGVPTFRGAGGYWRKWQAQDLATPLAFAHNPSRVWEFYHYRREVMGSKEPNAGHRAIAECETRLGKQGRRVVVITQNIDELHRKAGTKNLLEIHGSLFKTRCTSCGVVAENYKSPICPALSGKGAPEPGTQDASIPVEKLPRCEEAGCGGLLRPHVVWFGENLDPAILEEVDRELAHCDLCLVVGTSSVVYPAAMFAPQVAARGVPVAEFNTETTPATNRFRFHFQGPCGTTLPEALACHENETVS

Turning to `Nc1ncnc2c1nc(Sc1cc3c(cc1I)OCO3)n2C[C@H]1CCCN(Cc2cccc(S(=O)(=O)F)c2)C1`, the T1/2 in data set [1] is 5 min. In data set [2], the Kinact was 2.17 10^-3/s.
Regarding `O=C(NCCc1cccc(F)c1)[C@@H](c1cncnc1)N(C(=O)[C@@H](F)Cl)c1ccc(S(F)(F)(F)(F)F)cc1`, the inhibition constant Ki in data set [3] stood at 53.6 µM. Besides, the Kin in [4] was 1.1 10^-3/s.
Consider `CC(NS(=O)(=O)c1ccc(S(=O)(=O)F)cc1)c1cccc(S(N)(=O)=O)c1` (stereo not given), for which, in data set [5], the Kinact was 1.7 10^-5/s. The Ki in data set [6] is below 5 µM.
For `CC(NC(=O)c1ccc(S(=O)(=O)F)cc1)c1cccc(S(N)(=O)=O)c1` (stereo not given) the same measures were 0.45 10^-5/s and 33 µM.
On to `C#CCCC(=O)C(SC[C@H](NC(=O)OCc1ccccc1)C(=O)N[C@H](C(=O)OC)C(C)C)[P+](c1ccccc1)(c1ccccc1)c1ccccc1` (stereo not given in full), for which, in [7], the K stood at 15000 M⁻¹ s⁻¹.
`O=C(NCCc1cccc(F)c1)[C@H](c1cncnc1)N(C(=O)[C@H](F)Cl)c1ccc(S(F)(F)(F)(F)F)cc1`: the Ki in data set [3] is 64.7 µM. For the same molecule, the Kinact in data set [4] is 4.3 10^-3/s.
With `O=S(=O)(c1ccc(F)cc1)n1cnc(-c2ccccc2)n1`, the half-life in data set [8] was found to be 6.5 min. Moreover, the Kinact in [9] is 4.8 10^-4/s. In addition, in [10], the Ratio is 8.4 10^2/M/s.
Regarding `C#CCNC(=O)c1ccc(S(=O)(=O)N[C@@H](CCCCNC(=O)c2cncc(OS(=O)(=O)F)c2)C(=O)N[C@@H](CCCNC(=N)N)C(=O)NC2CCC2)cc1`, the Kinact in data set [11] was 2.83 10^-4/s. In addition, the Ratio in data set [12] amounted to 2.9 M⁻¹ s⁻¹.
As to `NS(=O)(=O)c1cccc(CNC(=O)c2ccc(S(=O)(=O)F)cc2)c1`, the Kinact in data set [5] is 12 10^-5/s. For the same molecule, in data set [6], the Ki was below 5 µM.
The matching figures for `NS(=O)(=O)c1cccc(CNC(=O)Cc2ccc(S(=O)(=O)F)cc2)c1`: 0.73 10^-5/s and below 5 µM.
With `O=C(CCl)NCc1ccccc1`, the K in data set [13] was found to be 0.08 M⁻¹ s⁻¹.
For the molecule `NS(=O)(=O)c1cccc(CNS(=O)(=O)c2ccc(S(=O)(=O)F)cc2)c1`, the Kinact in data set [5] was 9.6 10^-5/s. The Ki in data set [6] was below 5 µM.
For the molecule `NC(=O)CCl`, the figures for the half-life in data set [14] and in [15] were below 100 min and 2.4 min, respectively.
For `NC(=O)C(F)Cl` (stereo not given) the same measures were 1020 min and 264 min.
As to `O=C(COS(=O)(=O)NCc1ccccc1)NCc1ccccc1`, the K in data set [13] worked out at 0.02 M⁻¹ s⁻¹. Further, in data set [16], the half-life at up to 200 µM was around 720 min.
With `CCSc1nc2sc3c(c2c(=O)n1CC)CCc1ccccc1-3`, in data set [14], the half-life stood at 41 min. In data set [17], 4.9 µM corresponded to half-maximal inhibition (IC50).
In the case of `CC(=O)N(C)c1ccccc1`, in data set [14], the half-life came out at 20 min.
Regarding `NS(=O)(=O)c1ccc(CCNC(=O)c2cccc(S(=O)(=O)F)c2)cc1`, in data set [5], the Kinact was 0.51 10^-5/s. In addition, the Ki in [6] was below 5 µM.
As for `COc1ccc(-c2ncn(S(=O)(=O)c3cccnc3)n2)cc1`, the half-life in data set [18] was found to be 1.6 min.
Consider `CS(=O)(=O)OCC(=O)NCc1ccccc1`, for which the K in [13] was determined as 0.134 M⁻¹ s⁻¹.
For the molecule `C#CCN(C)C(=O)c1cncc(-c2cnc3[nH]cc(-c4cc(C=O)c(C#C)cc4OC)c3c2)c1`, the 50% inhibitory concentration (IC50) in data set [19] was 0.0028 µM. The Kinact in data set [20] is 5.54 10^-3/s. Further, in [21], the Ki worked out at 3.2 µM.
With `NS(=O)(=O)c1cccc(CNC(=O)c2cccc(S(=O)(=O)F)c2)c1`, the Kinact in data set [5] is 21 10^-5/s. For the same molecule, the Ki in data set [6] is below 5 µM.
As to `O=S(=O)(c1ccc(F)cc1)n1cnc(-c2ccc(Br)cc2)n1`, the half-life in data set [8] is 6.6 min.
On to `Nc1ncnc2c1nc(Sc1cc3c(cc1I)OCO3)n2C[C@@H]1CCCN(Cc2cccc(S(=O)(=O)F)c2)C1`, for which, in data set [1], the T1/2 was found to be 200 min. In [2], the Kinact was 6.67 10^-5/s.
For `C#CCOCCOCCOc1cccc(N2CCN(C(=O)CF)CC2)c1`, the half-life in data set [14] is above 10000 min.
`O=C(NCCc1cccc(F)c1)[C@@H](c1cncnc1)N(C(=O)[C@H](F)Cl)c1ccc(S(F)(F)(F)(F)F)cc1`: in [3], the inhibitory constant (Ki) is 1.34 µM. Moreover, the Kinact in [4] is 5.6 10^-3/s.
With `CC#CC1=Nc2ccccc2C(C)(C)N1`, the half-life in data set [14] is 1.5 min; in data set [22], above 167 h.
Regarding `Nc1ncnc2c1ncn2[C@@H]1O[C@H](CN(CC[C@H](N)C(=O)O)S(=O)(=O)c2ccc(F)c([N+](=O)[O-])c2)[C@@H](O)[C@H]1O`, the half-life in data set [14] was below 2 min.
On to `NS(=O)(=O)c1ccc(CCNC(=O)c2ccc(S(=O)(=O)F)cc2)cc1`, for which the Kinact in [5] is 0.89 10^-5/s. Further, the inhibition constant (Ki) in [6] was below 5 µM.
With `CN(C)C/C=C/C(N)=O`, the half-life in data set [15] is 30.6 min.
As to `CCCSc1nc2sc3c(c2c(=O)n1CC)CCc1ccccc1-3`, the half-life in [14] was 41 min.
Take `COc1ccc(-c2ncn(S(=O)(=O)c3ccc(OC)cc3)n2)cc1`: the half-life in [18] was found to be 183 min.

The values above are taken from ChEMBL document CHEMBL5512664, “Emerging and Re-emerging Warheads for Targeted Covalent Inhibitors: An Update” (J Med Chem, 2024).
